Measurements from patent US20230285570A1, “THERAPEUTICALLY USEFUL CURE-PRO MOLECULES FOR E3 LIGASE MEDIATED DEGRADATION OF PROTEINS, AND METHODS OF MAKING AND USING THEM” (CORNELL UNIVERSITY, priority 2020, published 2023).
“Also recorded” adds a separate entry of the source.

What was measured:
Assay type in all cases: cell-based
BRD4 [1] = target: T1, BRD4 (Homo sapiens, UniProt O60885); assay: CURE-PRO-mediated BRD4 degradation in MCF7 cells, WES (ProteinSimple); design: endogenous in cells
Protocol: (§1) WES Simple analysis was performed on WES system (ProteinSimple-Biotechne) according to the manufacturer's instructions. Total protein concentrations of cell lysates were determined by the Pierce BCA kit (Thermo Fisher). 3 μL of 0.3 μg/μL of the protein lysate was loaded onto a 12- to 230-kDa WES assay plate (ProteinSimple) where 300 nL sample was withdrawn through a capillary, subjected to electrophoretic separation of proteins by size, and followed by the simultaneous, HRP-based detection of proteins using the Anti-Rabbit Detection Module (Proteinsimple: #DM-001). The electropherograms were checked then the automatic peak detection was manually corrected if it was required.
MCF7 cells (3×10^6) were treated for 4-24 hours continually (FIG. 72), or treated for 4 h, washed and incubated for a further 4-24 h with the compounds solubilized in DMSO. Compounds were added at 10 μM each. Cells were washed, lysed, and clarified by centrifugation. The total protein concentration was quantified by the BCA method (ThermoFisher Sciences). Standardized protein samples were electrophoresed and imaged as described in the WES Proteinsimple section above. FIG. 69 depicts the CURE-PRO-mediated BRD4 degradation for the BRD-E50 monomer, and VHL ligand, 8305.
MCF7 cells (3×10^6) were treated for 24 hours with the compounds solubilized in DMSO. CURE-PRO monomers were added at 10 μM each and the proteasomal inhibitors at 1 μM. Standardized protein samples were electrophoresed and imaged as described in the WES Proteinsimple section above. FIGS. 73 and 75 depicts the dependence of the proteasome for CURE-PRO-mediated BRD4 degradation.
MCF7 cells (3×10^6) were treated for 24 hours with the compounds solubilized in DMSO. CURE-PRO monomers were added at 10 μM. FIG. 74 depicts the CURE-PRO-mediated BRD4 degradation for the BRD-E50 monomer, and VHL ligand, 8305 combined in a 1:1 ratio after 24 h.

BRD4 [2] = target: T1, BRD4; assay: Summary of BRD4 degradation by CURE-PRO pairs, estimated from Western Blot or WES; design: endogenous in cells; conditions: for Degradation of BRD4, combination with CRBN ligand 8046: Table 1, aryl-boronic acid BRD4 ligand + 8046; for Degradation of BRD4, combination with CRBN ligand 8066: Table 1, aryl-boronic acid BRD4 ligand + 8066
Procedure, shortened: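 Namalwa, Ramos, HeLa, MCF7, HT29 or HCT116 cells treated 24 h with compounds in DMSO; RIPA lysates analysed by Western blot (ECL) or capillary WES immunodetection. Check mark denotes 30% to 70% or higher protein degradation.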

MV-4-11 cells = assay: CellTiter-Glo cell viability, MV-4-11 cells; conditions: for loss of cellular viability (toxicity) versus monomers alone: cotreated 1:1 with each of CRBN ligands 8046, 8047 and 8066, MV-4-11, 72 h, 10 nM-100 μM
Protocol: CellTiter-Glo® 2.0 Cell Viability Assay (Promega) was carried out following the manufacturer's recommendations. Cells were seeded at a density of 1000 cells/well in a white 96 well plates (Corning, #3917) in a total volume of 100 μl with respective monomers, combinations of BRD ligands together with E3 ligase ligands or vehicle control treatment. After a 72 h incubation, 100 ul of the CellTiter-Glo® substrate was added per well and luminescence was read on a Spectramax M5 (Molecular Devices). Dose-response curves were generated using Graphpad Prism software.
MV-4-11 cells (5×10^4) were treated for 24 hours with the sample compounds solubilized in DMSO. The compounds were added at 1 nM-100 μM each. Cellular viability was determined using the CellTiter-Glo® Luminescent Cell Viability Assay (Promega) described above. FIGS. 19-22 depict the CURE-PRO-mediated loss of cellular viability for BRD monomers (JQ1 derivatives comprising of catechol linkers), and CRBN ligand, 8049 (pomalidomide derivatives comprising boronic acid linkers) combined in a 1:1 ratio.
MV-4-11 cells (1×10^4) were treated for 72 hours with the compounds solubilized in DMSO. Compounds were added at 10 nM-100 μM each. Cellular viability was determined using the CellTiter-Glo® Luminescent Cell Viability Assay (Promega) described above. FIGS. 47-54 depict the CURE-PRO-mediated loss of cellular viability for BRD monomers (JQ1 derivatives comprising of boronic acid linkers), and CRBN ligands, 8046, 8047 and 8066 (pomalidomide derivatives comprising diol linkers) combined in a 1:1 ratio.

BRD4 [3] = target: T1, BRD4; assay: CURE-PRO-mediated BRD4 degradation in HeLa cells, Western blot; design: endogenous in cells; host or cells: HeLa; conditions: 24 h
Procedure, shortened: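 HeLa cells (2.5×10^6) treated 24 h with DMSO-solubilized compounds, degrader pairs combined 1:1, at 1 nM-1 μM, 1-10 μM, 10 μM or 10 and 100 μM each depending on series. RIPA lysates (10-20 μg protein) run on SDS-PAGE and immunoblotted for BRD4 with ECL detection.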

BRD4 [4] = target: T1, BRD4; assay: CURE-PRO-mediated BRD4 degradation in HeLa cells, WES capillary electrophoresis (ProteinSimple); design: endogenous in cells; host or cells: HeLa; conditions: co-dosed with CRBN ligand 8047, HeLa, 24 h, 100 nM-10 μM each
Protocol: All cell lines were purchased from ATCC or DSMZ and grown at 37° C. with 5% CO2. Human HeLa cells were cultured in complete growth medium (Dulbecco's modified Eagle's medium (DMEM) supplemented with 10% FBS); MCF7 cells were cultured in complete growth medium (Dulbecco's modified Eagle's medium (DMEM) supplemented with 10% FBS and 0.01 mg/ml human recombinant insulin (Sigma Aldrich); Namalwa and Ramos cells were cultured in complete growth medium (RPMI 1640 medium supplemented with 10% FBS); HCT116 and HT29 cells were cultured in complete growth medium (McCoy's 5a Medium supplemented with 10% FBS). For cellular degradation of BRD4 studies cells were seeded in a 12-well plate at 70-80% confluency, allowed to attach overnight, and incubated with the indicated compounds for the indicated time. When indicated, a 15-minute pretreatment with 10 μM pomalidomide, 10 μM VHL298, 10 μM Nutlin3a, 1 μM MG-132 or 1 μM Carfilzomib was performed before the addition of CURE-PROs. For washout studies, after CURE-PRO treatment, media was aspirated and incubated with complete medium for the indicated time before lysis.
as §1
HeLa cells (2.5×10^6) were treated for 4-24 hours with the compounds solubilized in DMSO. After 4 hours, indicated points were washed and cells were left in full growth media. Compounds were added at 10 μM each. Standardized protein samples were electrophoresed and imaged as described in the WES ProteinSimple section above. FIGS. 44 and 45 depict the time-dependence of CURE-PRO-mediated BRD4 degradation with the BRD-E52 ligand (FIG. 44) and BRD-E72 ligand (FIG. 45), both JQ1 derivatives comprising of boronic acid linkers, and the CRBN binding ligands (8046, 8047, and 8066), pomalidomide derivatives comprising diol linkers.
HeLa cells (2.5×10^6) were treated for 24 hours with the compounds solubilized in DMSO. Compounds were added at 100 nM-10 μM each. Standardized protein samples were electrophoresed and imaged as described in the WES ProteinSimple section above. FIG. 46 depicts the concentration-dependence of CURE-PRO-mediated BRD4 degradation and the requirement for monomer dimerization.

[5] = co-treated 1:1 with CRBN ligand 8046, HeLa, 10 μM each
[6] = co-treated 1:1 with CRBN ligand 8047, HeLa, 10 μM each
[7] = co-treated 1:1 with CRBN ligand 8066, HeLa, 10 μM each

`COc1ccc2c(c1)C(c1ccc(Cl)cc1)=N[C@@H](CC(=O)NCCNC(=O)c1cccc(B(O)O)c1)c1nnc(C)n1-2` [BRD-E2] was tested, and the “BRD4 degradation with proteasome inhibitors” value (BRD4 [1]; 1:1 with 8305 at 10 μM, pre-incubation with MG-132 and Carfilzomib 1 μM, MCF7) was “inhibited by the pre-incubation with MG-132 and Carfilzomib; also recorded: inhibited with the proteasome inhibitors, MG-132 and Carfilzomib”, the BRD4 degradation (BRD4 [1]; 1:1 with VHL ligand 8305, MCF7, 10 μM each, 4-24 h) was “caused BRD4 degradation; also recorded: marked BRD4 degradation” and the “Degradation of BRD4, combination with VHL ligand 8305” value (BRD4 [2]; Table 3, aryl-boronic acid BRD4 ligand + 8305) was “√ (A black check mark indicates efficacy of 30% to 70% or higher protein degradation)”.
With `COc1ccc2c(c1)C(c1ccc(Cl)cc1)=N[C@@H](CC(=O)NCCNC(=O)/C=C/c1ccc(B(O)O)cc1)c1nnc(C)n1-2` [BRD-E29, (4-((E)-3-((2-(2-((4S)-6-(4-chlorophenyl)-8-methoxy-1-methyl-4H-benzo[f][1,2,4]triazolo[4,3-a][1,4]diazepin-4-yl)acetamido)ethyl)amino)-3-oxoprop-1-en-1-yl)phenyl)boronic acid] the “loss of cellular viability (toxicity) versus monomers alone” value (from here on “loss … (toxicity) versus monomers alone”) (MV-4-11 cells) was “reduced viability; also recorded: increased toxicity”, the “Degradation of BRD4, combination with CRBN ligand 8046” value (“Degradation … with CRBN ligand 8046” below) (BRD4 [2]) was “√ (A black check mark indicates efficacy of 30% to 70% or higher protein degradation)” and the “Degradation of BRD4, combination with CRBN ligand 8047” value (BRD4 [2]; Table 1, aryl-boronic acid BRD4 ligand + 8047) was “√ (A black check mark indicates efficacy of 30% to 70% or higher protein degradation)”. The “Degradation of BRD4, combination with CRBN ligand 8066” value (BRD4 [2]) was “√ (A black check mark indicates efficacy of 30% to 70% or higher protein degradation)”, the BRD4 degradation (BRD4 [3]; [5]) was “causes degradation of BRD4; also recorded: Degradation is noted” and the BRD4 degradation (BRD4 [3]; [6]) was “causes degradation of BRD4; also recorded: Degradation is noted”. The BRD4 degradation (BRD4 [3]; [7]) was “causes degradation of BRD4; also recorded: Degradation is noted”.
For `COc1ccc2c(c1)C(c1ccc(Cl)cc1)=N[C@@H](CC(=O)NCCOCCOCCNC(=O)c1cccc(B(O)O)c1)c1nnc(C)n1-2` [BRD-E46], the “loss … (toxicity) versus monomers alone” value (MV-4-11 cells) was “reduced viability; also recorded: increased toxicity”, the “Degradation … with CRBN ligand 8046” value (BRD4 [2]) was “√ (A black check mark indicates efficacy of 30% to 70% or higher protein degradation)” and the “Degradation of BRD4, combination with CRBN ligand 8066” value (BRD4 [2]) was “√ (A black check mark indicates efficacy of 30% to 70% or higher protein degradation)”. For the same compound, the BRD4 degradation (BRD4 [3]; [5]) was “causes degradation of BRD4; also recorded: Degradation is noted” and the BRD4 degradation (BRD4 [3]; [7]) was “causes degradation of BRD4; also recorded: Degradation is noted”.
`CCNC(=O)C[C@@H]1N=C(c2ccc(Sc3ccccc3)cc2)c2cc(OC)ccc2-n2c(C)nnc21` [BRD-E52C, N-ethyl-2-((4S)-8-methoxy-1-methyl-6-(4-(phenylthio)phenyl)-4H-benzo[f][1,2,4]triazolo[4,3-a][1,4]diazepin-4-yl)acetamide] was tested, and the “concentration-dependent BRD4 degradation” value (BRD4 [4]) was “failed to induce degradation even at 10 μM”.
`CCNC(=O)C[C@@H]1N=C(c2ccc(Cl)cc2)c2cc(Sc3cccc(B(O)O)c3)ccc2-n2c(C)nnc21` [BRD-E76] was tested, and the “loss … (toxicity) versus monomers alone” value (MV-4-11 cells) was “reduced viability; also recorded: increased toxicity”, the “Degradation … with CRBN ligand 8046” value (BRD4 [2]) was “√ (A black check mark indicates efficacy of 30% to 70% or higher protein degradation)” and the BRD4 degradation (BRD4 [3]; [5]) was “causes degradation of BRD4”. For the same compound, the BRD4 degradation (BRD4 [3]; [6]) was “causes degradation of BRD4”.
`COc1ccc2c(c1)C(c1ccc(Cl)cc1)=N[C@@H](CC(=O)NCCc1ccc(O)c(O)c1)c1nnc(C)n1-2` [BRD-N10, (S)-2-(6-(4-chlorophenyl)-8-methoxy-1-methyl-4H-benzo[f][1,2,4]triazolo[4,3-a][1,4]diazepin-4-yl)-N-(3,4-dihydroxyphenethyl)acetamide] was tested, and the “loss of cellular viability (toxicity)” value (MV-4-11 cells; co-dosed 1:1 with CRBN ligand 8049, MV-4-11, 24 h, 1 nM-100 μM each) was “concentration-dependent loss in cellular viability; also recorded: increased toxicity”, the “Degradation of BRD4, combination with CRBN ligand 8048” value (BRD4 [2]; Table 4, aromatic 1,2-diol BRD4 ligand + 8048) was “√ (A black check mark indicates efficacy of 30% to 70% or higher protein degradation)” and the “Degradation of BRD4, combination with CRBN ligand 8049” value (BRD4 [2]; Table 4, aromatic 1,2-diol BRD4 ligand + 8049) was “√ (A black check mark indicates efficacy of 30% to 70% or higher protein degradation)”. For the same compound, the “Degradation of BRD4, combination with MDM2 ligand 8310” value (BRD4 [2]; Table 5, aromatic 1,2-diol BRD4 ligand + 8310) was “√ (A black check mark indicates efficacy of 30% to 70% or higher protein degradation)”, the BRD4 degradation (BRD4 [3]; BRD4 monomer alone, HeLa, 1-10 μM) was “there is no degradation of BRD4” and the BRD4 degradation (BRD4 [3]; co-treated 1:1 with CRBN ligand 8048, HeLa, 1-10 μM each) was “causes degradation of BRD4; also recorded: capable of degrading BRD4”.
